This note sets out measurements from patent US10130670B2, “Composition for treating or preventing inflammatory skin disease, comprising, as active ingredient, immature citrus fruit extract, or synephrine or salt thereof” (BIO SPERCTRUM, INC., priority 2013, dated 2018).

In series [1] the test system is eotaxin-1. The series can be described thus: eotaxin-1 reporter gene (luciferase) promoter activity in IL-4 treated fibroblast. In kind it is cell-based. As to conditions: 10, 100 and 200 μM synephrine; 50 ng/ml IL-4; 24 hours; NIH/3T3. As to the method:
Human normal fibroblast (human normal fibroblast, NIH/3T3, department of dermatology in Aju University) was transformed by inserting Eotaxin-1 reporter gene into it with superfect (Quigen Co.), and then cultured in 5% concentration of CO2 cultivator under the condition of 37° C. for 24 hours. And then, the transformed fibroblast was inoculated into 24-well microplate with DMEM media so as to be about 2×10^5 cells per well, and treated with 1, 10, 100 ppm of unripe Citrus unshiu fruit extract, or 10, 100 and 200 μM of synephrine, respectively and then was treated simultaneously with 50 ng/ml of interleukin-4 (R&D, Minneapolis Minn., IL-4) known to induce eotaxin-1, cultivated for 24 hours to collect cells. Then, the collected cells were crushed and reacted with a substrate of luciferase to determine luminescence, and a promoter activity of eotaxin-1 was determined. The results are represented in FIG. 1.

For series [2], the system named is eotaxin-1. The series can be described thus: extracellular secretion of eotaxin-1 by ELISA in IL-4 treated fibroblast. In kind it is cell-based, human. As to conditions: 10, 100 and 200 μM synephrine; 50 ng/ml IL-4; 24 hours; NIH/3T3. As to the method:
Human normal fibroblast (human normal fibroblast, NIH/3T3, department of dermatology in Aju University) was inoculated into 24-well microplate with DMEM media so as to be about 2×10^5 cells per well, and cultured in 5% concentration of CO2 cultivator under the condition of 37° C. for 24 hours. And then, it was treated with 1, 10, 100 ppm of unripe Citrus unshiu fruit extract, or 10, 100 and 200 μM of synephrine, respectively and then was treated simultaneously with 50 ng/ml of interleukin-4 (R&D, Minneapolis Minn., IL-4), cultivated for 24 hours to collect cell culture media. And then, the degree of secretion of eotaxin-1 was determined by using ELISA kit. The results are represented in FIG. 2.

The subject of the next series is eotaxin-1 mRNA. The series can be described thus: eotaxin-1 mRNA expression by quantitative Real-time PCR in IL-4 treated fibroblast. In kind it is cell-based, human. Conditions: 10, 100 and 200 μM synephrine; 50 ng/ml IL-4; 24 hours; NIH/3T3. As to the method: Human normal fibroblast (human normal fibroblast, NIH/3T3, department of dermatology in Aju University) was inoculated into 24-well microplate with DMEM media to be about 2×10^5 cell per well, and cultured in 5% concentration of CO2 cultivator under 37° C. for 24 hours. And then, it was treated with 1, 10, 100 ppm of unripe Citrus unshiu fruit extract, or 10, 100 and 200 μM of synephrine, respectively and then was treated simultaneously with 50 ng/ml of interleukin-4 (R&D, Minneapolis Minn., IL-4), cultivated for 24 hours to collect cell culture media. After extracting tRNA from the collected cells, a complementary DNA (cDNA) was synthesized based on the extracted tRNA and then, a quantitative Real-time PCR was performed by using the synthesized complementary DNA as a template to determine the degree of expression for mRNA of eotaxin-1. The results are represented in FIG. 3.

In series [3] the test system is STAT6. Nature of the series: STAT6 phosphorylation by Western blot in IL-4 treated fibroblast. In kind it is cell-based, human. Conditions: 10, 100, 200 ppm synephrine for 60 minutes, then 50 ng/ml IL-4 for 20 minutes; NIH/3T3. As to the method: Human normal fibroblast (human normal fibroblast, NIH/3T3, department of dermatology in Aju University) was inoculated into 24-well microplate with DMEM media so as to be about 2×10^5 cells per well, and cultured in 5% concentration of CO2 cultivator under the condition of 37° C. for 24 hours. And then, it was treated with 10, 100, 200 ppm of synephrine for 60 minutes, respectively and then 50 ng/ml of IL-4 was treated to cultivate for 20 minutes. Then, the cells were collected to dissolve and then determine the degree of phosphorylation inhibition of STAT6 through Western blot. The results are represented in FIG. 3.

In series [4] the test system is STAT6. Nature of the series: translocation of STAT6 into the nucleus, confocal microscopy. In kind it is cell-based. Conditions: 200 μM synephrine for 60 minutes, then 50 ng/ml IL-4 for 24 hours; NIH/3T3. As for the experimental part:
Human normal fibroblast (human normal fibroblast, NIH/3T3, department of dermatology in Aju University) was inoculated into 24-well microplate with DMEM media so as to be about 2×10^5 cells per well, and cultured in 5% concentration of CO2 cultivator under the condition of 37° C. for 24 hours. And then, it was treated with 200 μM of synephrine for 60 minutes, respectively and then was treated with 50 ng/ml of IL-4 to cultivate for 24 hours. And then, the cells was immobilized with paraformaldehyde (PFA) and treated with the primary antibody specifically reacting with STAT6. […] The results are represented in FIG. 5.

Another series relates to eosinophil. Nature of the series: eosinophil transmigration in co-cultivation with IL-4 treated fibroblast. In kind it is cell-based. As to conditions: 10, 100 and 200 μM synephrine; 50 ng/ml IL-4; 24 hours. As to the method:
Human normal fibroblast (human normal fibroblast, NIH/3T3, department of dermatology in Aju University) was inoculated into 24-well co-cultivation plate with DMEM media so as to be about 2×10^5 cells per well, and cultured in 5% concentration of CO2 cultivator under the condition of 37° C. for 24 hours. And then, it was treated with 10, 100 and 200 μM of synephrine for 60 minutes, respectively and then 50 ng/ml of IL-4 was treated to induce the expression of eotaxin-1. Simultaneously, eosinophil was inoculated and cultivated for 24 hours. After the cultivation, the transmigration degree of eosinophil moved through the membrane to bottom of the plate was determined. The determination was measured via a fluorescence staining by using CytoSelect™ 24-Well Cell Migration Assay kit (Cell biolabs, INC., USA). The results are represented in FIG. 6.

For another series, the system named is human skin. The series can be described thus: accumulated patch test for safety to the human skin. In kind it is in vivo. Conditions: for Mean reaction degree: 30 adults, 9 patches, less than 3 = safe. As for the experimental part: In order to identify as to whether the unripe Citrus unshiu fruit extract or synephrine isolated from the unripe Citrus unshiu fruit is safe or not, the skin external preparation based on squalene wherein 1, 10 and 100 ppm of the unripe Citrus unshiu fruit extract prepared in Example 1 were added, was prepared, and the skin external preparation wherein 10, 150 and 300 ppm of synephrine of Example 2 were added, were prepared, respectively.
Then, the skin external preparations were applied as a patch to areas of humerus of 30 adults for accumulated 24 hours on alternate day in total 9 times to test as to whether synephrine stimulates the skin. The control used the skin external preparation based on squalene wherein the unripe Citrus unshiu fruit extract or synephrine was not comprised.
The patch used Finn chamber (Epitest Ltd, Filand) and the patch was practiced after dropping with 15 μl of the skin external preparations prepared from the above, respectively. The degree of the reaction represented on the skin in every time was scored by using the below experimental formula 1. Mean reaction degree=[{(reaction index×reaction degree)/(total number of the subject×the highest score (four point))}×100]/times of the test [Experimental Formula 1]
At this time, in the reaction degree, ± represents 1 score (point), + represents 2 score and ++ represents 4 score,
When the mean reaction degree is less than 3, it is considered as being the safe composition.

Series [5] concerns children of atopy patients. Nature of the series: effect for improving atopy of cream, EASI score. In kind it is in vivo, human. Conditions: for EASI score (5 = no improvement, 0 = many improvements): cream 0.03 or 0.01% by weight, twice per day, 30 children. As for the experimental part: Creams comprising the unripe Citrus unshiu fruit extract or synephrine isolated from it, having the ingredients and contents shown in below Table 2 were prepared. Specifically, aqueous phase, the purified water, triethanolamine and propylene glycol were heated to 70° C. to dissolve them, and then to it added the liquid in which oil phase, fatty acid, oily component, emulsifier and preservative were heated to 70° C. to dissolve them and stirred with homomixer (Tokushu Kika Ltd., Japan) to emulsify them. After the emulsifying them was completed, the said solution was cooled to 45° C., 0.03% by weight or 0.01% by weight of the unripe Citrus unshiu fruit extract or synephrine based on the total weight of the composition was added, dispersed and then cooled to 30° C.
Cream comprising 0.03 or 0.01% by weight of the unripe Citrus unshiu fruit extract or synephrine isolated from it, prepared according to the method of 10-1 as above was used for 30 children of atopy patients twice per day for 4 weeks. The control used the cream comprising the purified water instead of the unripe Citrus unshiu fruit extract or synephrine.
The effect improving atopy was determined by using Eczema Area Severity Index (EASI) score, the determination criterion was set as 5 for the case that there is no improvement of atopy, and 0 for the case that there are many improvements of atopy and the relative values were compared.

`CNCC(O)c1ccc(O)cc1` (stereo not drawn) [synephrine, 4-[1-hydroxy-2-(methylamino)ethyl]phenol]: in the series on eotaxin-1 [1], the “promoter activity of eotaxin-1 derived by IL-4” value is recorded as “reduced”. Moreover, in the series on eotaxin-1 [2], the “extracellular secretion of eotaxin-1 derived by IL-4” value was “reduced”. Also, the “expression of mRNA of eotaxin-1 derived by IL-4” value in the series on eotaxin-1 mRNA is on record as “reduced”. The “phosphorylation of STAT6 derived by IL-4” value with STAT6 [3] is given as “effectively inhibits”. For the same compound, the “translocation of STAT6 derived by IL-4 into the nucleus” value in the series with STAT6 [4] is on record as “inhibits”. Moreover, in the series with eosinophil, the “movement of eosinophil derived by eotaxin-1 expressed from the treatment of IL-4” value is listed as “inhibits”. Besides, the “skin reaction in the patch test” value with human skin (10, 150 and 300 ppm, all test groups, all 9 patches) is on record as “did not represent the skin reaction”. Further, the Mean reaction degree in the series on human skin (10 ppm in squalene-based skin external preparation), in the series on human skin (150 ppm in squalene-based skin external preparation) and in the series with human skin (300 ppm in squalene-based skin external preparation) was 0.00 in each case. Further, the “safety to the human skin, judged from mean reaction degree” value with human skin (all tested concentrations, mean reaction degree less than 3 = safe) was “safe material”. Besides, the “EASI score (5 = no improvement, 0 = many improvements)” value in series [5] (1st week) is listed as 2.82; in series [5] (2nd week), 1.51; in series [5] (4th week) it was 0.63. Moreover, the “EASI score compared to the control” value in series [5] (cream used for 4 weeks) was “reduced compared to the control”.
